Test results taken from patent US20250361233A1, “Compounds For Activating Serotonin Receptor” (PSYLO PTY LTD, priority 2023, published 2025).

Experiments:
C57BL/6J mice = test: Biotelemetry and head-twitch response (HTR) experiments; assay type: in vivo, mice (C57BL/6J males); settings: male C57BL/6 mice, SC, several doses (0.03 to 30 mg/kg)
Source text: Mice (C57BL/6J males) were purchased from the Jackson Laboratory (Bar Harbor, ME, USA) at 5-6 weeks of age and allowed at least 1-2 weeks to acclimate to the NIDA, Intramural Research Program (IRP), animal research facility in Baltimore, MD, USA. The animal facility is fully accredited by the Association for the Assessment and Accreditation of Laboratory Animal Care, and all procedures were approved by the NIDA IRP Animal Care and Use Committee. Mice were initially group housed 3-5 per cage during acclimation and housed in a 12 h light-dark cycle throughout the study, with lights on at 0700 h. Food and water were available ad libitum except during testing. Cohorts of 20-24 mice were used for each test drug. The mice were subjected to experimental testing once every 1-2 weeks for 2-3 months to complete dose-effect curves and antagonist experiments. A minimum of 7 days between treatments was utilized to avoid any tolerance to effects of repeated drug administration. All drug doses represent the weight of the salt dissolved in 0.9% saline vehicle. Mice were tested first in dose-response studies to assess the effects of each compound at doses from 0.03 to 30 mg/kg s.c. and were subsequently tested in antagonist reversal studies utilizing pretreatment with M100907 and WAY100635. All experiments were conducted from 0900 to 1700 local time during the light phase, as sensitivity of rodents to other tryptamine psychedelics is diurnal, with maximal HTR observed in the middle of the light phase. […]
Subcutaneous Temperature Transponder Implants. […] Temperature was determined noninvasively using a handheld receiver that is sensitive to signals emitted from the implanted transponders.
Prior to each experiment, mouse body weight and temperature were recorded. […] In dose-response studies, after a brief 5 min acclimation, mouse body temperature was recorded for baseline measurement, mice received s.c. injection of test substance or vehicle, and animals were returned to the testing arena for 30 min. During the session, locomotor activity was monitored via photobeam tracking of movements in the horizontal plane to yield distance traveled in centimeter. HTR was monitored by the analysis of GoPro Hero Black 7 video recordings (120 frames per see and 960p resolution) using a commercially available software package from Clever Sys Inc. (Reston, VA, USA).82 Post-treatment body temperature values were also recorded, and temperature data are represented as change from pretreatment baseline.
In antagonist reversal experiments, mice received a s.c. injection of either receptor antagonists or vehicle and were returned to the testing chamber for 30 min. During this period, locomotor activity was monitored to examine the potential effects of antagonist treatment on general behavior or movement. […]

Male ICR mice = test: Acute restraint stress - tail suspension test (TST); assay type: in vivo; settings: ICR mice after 5 h acute restraint stress, IP; P-3 3, 10 mg/kg; P-8 3, 10, 30 mg/kg; vs vehicle
Protocol: Male ICR mice (23±3 g) were purchased from BioLASCO (Taipei, Taiwan) at 4-5 weeks of age and allowed 5-7 days to acclimate to the animal research facility at Pharmacology Discovery Services (Taipei, Taiwan). Mice were housed in groups of 10 in a large cage (47×25×15 cm) on a 12-hour light cycle (lights on: 0700) and provided ad libitum food and water except during acute restraint stress and tail-suspension testing. Temperature was maintained at 20-24° C., and all rooms (colony and testing rooms) had similar lighting intensity. All aspects of this work including housing, experimentation, and animal disposal were performed in accordance with the “Guide for the Care and Use of Laboratory Animals: Eighth Edition” (The National Academies Press, Washington, DC, 2011) in a facility accredited by the Association for Assessment and Accreditation of Laboratory Animal Care. […]
Tail Suspension Test (TST) Procedure: Mice were individually suspended on the edge of a shelf, 58 cm above a tabletop, using adhesive tape placed approximately 1 cm from the tip of the tail, for a total duration of 7 minutes. Using a stopwatch, the experimenters blinded to treatment groups recorded the duration of immobility (defined as hanging passively and motionless) during the 5 minutes spanning from 2-7 minutes. The data from 0-2 minutes was not recorded. […]

SMILES: COc1cnc2[nH]cc(CCN(C)C)c2c1 [Compound P-3, 2-(5-methoxy-1H-pyrrolo[2,3-b]pyridin-3-yl)-N,N-dimethylethan-1-amine]
- Head-twitch response (HTR) (C57BL/6J mice): not promoting increased head-twitch response
- Tolerability (temperature, locomotor activity, HTR; FIGS. 2-5) (C57BL/6J mice): well-tolerated
- Immobility time in tail suspension test (FIG. 6) (Male ICR mice): decrease the immobility time of mice
